Experimental data published in ChEMBL document CHEMBL1133183, “Quantized surface complementarity diversity (QSCD): a model based on small molecule-target complementarity” (J Med Chem, 2000).
Blank lines part the entries; values can stand above or below the molecule they belong to.

Columns and labels:
[1] = biological target: Leukotriene B4 receptor 1 (Homo sapiens, UniProt Q15722); test: Binding affinity to leukotriene B4 receptor
Endothelin-1 receptor = biological target: T1, Endothelin-1 receptor (Homo sapiens, UniProt P25101); test: Binding affinity to Endothelin A receptor
T1 sequence (P25101 whole entry): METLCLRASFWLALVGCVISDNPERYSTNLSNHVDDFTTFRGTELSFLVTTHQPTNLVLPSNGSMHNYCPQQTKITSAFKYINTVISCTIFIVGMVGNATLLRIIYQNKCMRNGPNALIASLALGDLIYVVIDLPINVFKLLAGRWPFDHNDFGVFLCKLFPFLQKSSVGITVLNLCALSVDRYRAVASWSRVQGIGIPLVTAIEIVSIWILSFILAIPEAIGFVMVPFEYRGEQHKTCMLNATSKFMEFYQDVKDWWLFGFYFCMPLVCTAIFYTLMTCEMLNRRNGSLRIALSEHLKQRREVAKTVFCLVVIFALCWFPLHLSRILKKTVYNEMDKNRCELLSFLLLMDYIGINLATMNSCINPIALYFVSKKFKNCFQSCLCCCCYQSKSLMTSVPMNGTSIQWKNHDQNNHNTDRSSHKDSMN

[2] = Inhibitory activity against DNA topoisomerase I
Prolyl endopeptidase = Prolyl endopeptidase (Sus scrofa, UniProt P23687); test: Inhibition of Prolyl endopeptidase activity; format: functional
Chain of Prolyl endopeptidase (P23687 whole entry): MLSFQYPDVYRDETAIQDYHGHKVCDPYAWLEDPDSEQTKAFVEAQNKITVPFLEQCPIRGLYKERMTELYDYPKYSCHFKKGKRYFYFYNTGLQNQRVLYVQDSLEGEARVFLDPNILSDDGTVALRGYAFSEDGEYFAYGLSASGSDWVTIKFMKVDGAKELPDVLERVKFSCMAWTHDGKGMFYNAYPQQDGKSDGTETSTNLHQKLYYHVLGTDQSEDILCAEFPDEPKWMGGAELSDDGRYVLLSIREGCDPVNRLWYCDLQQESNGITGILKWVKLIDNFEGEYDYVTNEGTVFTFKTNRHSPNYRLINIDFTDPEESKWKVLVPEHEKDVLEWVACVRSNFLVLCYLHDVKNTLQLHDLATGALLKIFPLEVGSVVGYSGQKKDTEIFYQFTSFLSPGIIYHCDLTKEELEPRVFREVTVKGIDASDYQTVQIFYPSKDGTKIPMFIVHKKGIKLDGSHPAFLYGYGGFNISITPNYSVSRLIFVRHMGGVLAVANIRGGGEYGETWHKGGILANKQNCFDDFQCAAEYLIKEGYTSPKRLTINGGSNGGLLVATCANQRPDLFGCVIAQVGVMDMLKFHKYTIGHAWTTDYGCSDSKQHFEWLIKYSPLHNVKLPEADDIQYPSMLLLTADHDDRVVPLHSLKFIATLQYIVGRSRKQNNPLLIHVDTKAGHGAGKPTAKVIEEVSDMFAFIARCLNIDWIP

[3] = biological target: T2, Type-1 angiotensin II receptor (Oryctolagus cuniculus, UniProt P34976); test: Binding affinity to Angiotensin II receptor, type 1
T2 sequence (P34976 whole entry): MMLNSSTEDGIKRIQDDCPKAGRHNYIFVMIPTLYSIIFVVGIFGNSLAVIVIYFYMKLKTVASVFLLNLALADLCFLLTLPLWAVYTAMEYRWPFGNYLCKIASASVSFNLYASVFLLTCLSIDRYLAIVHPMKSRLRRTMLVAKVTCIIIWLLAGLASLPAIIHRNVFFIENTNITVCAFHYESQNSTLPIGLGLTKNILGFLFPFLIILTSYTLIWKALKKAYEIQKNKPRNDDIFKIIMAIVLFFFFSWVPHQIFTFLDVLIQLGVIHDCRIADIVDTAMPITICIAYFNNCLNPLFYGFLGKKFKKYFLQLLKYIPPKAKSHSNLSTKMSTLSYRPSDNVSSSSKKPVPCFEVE

Adenosine receptor A2a = Adenosine receptor A2a (Rattus norvegicus, UniProt P30543); test: Binding affinity to Adenosine A2A receptor
Chain of Adenosine receptor A2a (P30543 whole entry): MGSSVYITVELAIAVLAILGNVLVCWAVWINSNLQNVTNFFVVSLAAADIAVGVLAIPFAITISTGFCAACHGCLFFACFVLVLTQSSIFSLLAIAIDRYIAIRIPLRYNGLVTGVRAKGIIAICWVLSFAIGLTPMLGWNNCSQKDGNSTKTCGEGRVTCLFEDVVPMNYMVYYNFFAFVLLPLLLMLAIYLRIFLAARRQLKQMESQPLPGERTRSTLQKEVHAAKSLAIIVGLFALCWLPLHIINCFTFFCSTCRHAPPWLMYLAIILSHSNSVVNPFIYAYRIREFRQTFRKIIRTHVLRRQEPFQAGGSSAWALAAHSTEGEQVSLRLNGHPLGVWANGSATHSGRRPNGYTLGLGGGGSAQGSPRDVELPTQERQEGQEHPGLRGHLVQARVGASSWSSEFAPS

[4] = biological target: T3, Type-2 angiotensin II receptor (Rattus norvegicus, UniProt P35351); test: Inhibitory activity against Angiotensin II receptor, type 2 binding
T3 sequence (P35351 whole entry): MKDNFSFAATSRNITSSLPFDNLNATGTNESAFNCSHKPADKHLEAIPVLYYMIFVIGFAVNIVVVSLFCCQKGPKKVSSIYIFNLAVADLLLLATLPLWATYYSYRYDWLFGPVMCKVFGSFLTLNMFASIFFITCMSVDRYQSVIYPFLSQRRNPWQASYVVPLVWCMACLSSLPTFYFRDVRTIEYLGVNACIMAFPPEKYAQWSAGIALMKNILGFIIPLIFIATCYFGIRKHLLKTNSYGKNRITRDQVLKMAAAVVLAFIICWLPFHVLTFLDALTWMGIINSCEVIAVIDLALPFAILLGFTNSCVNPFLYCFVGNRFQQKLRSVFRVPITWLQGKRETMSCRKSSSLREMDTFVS

[5] = biological target: T3, Type-2 angiotensin II receptor; test: Binding affinity to Angiotensin II receptor, type 2

Chain of Leukotriene B4 receptor 1 (Q15722 whole entry): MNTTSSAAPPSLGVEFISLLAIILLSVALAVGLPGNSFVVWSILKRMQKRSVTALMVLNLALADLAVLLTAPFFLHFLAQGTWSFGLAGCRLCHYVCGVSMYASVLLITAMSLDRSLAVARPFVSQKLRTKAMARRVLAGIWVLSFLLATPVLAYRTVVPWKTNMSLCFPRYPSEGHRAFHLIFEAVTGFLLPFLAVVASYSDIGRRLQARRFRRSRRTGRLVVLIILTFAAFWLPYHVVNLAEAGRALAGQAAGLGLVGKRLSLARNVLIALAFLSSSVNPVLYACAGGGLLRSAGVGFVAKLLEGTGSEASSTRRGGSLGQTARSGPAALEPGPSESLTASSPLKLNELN

SMILES: CC[C@@]1(O)C(=O)OCc2c1cc1n(c2=O)Cc2c-1nc1cnc(Br)cc1c2C
IC50 [2]: 28 nM

SMILES: CCOC(=O)C(=O)[C@@H]1CCCN1C(=O)[C@@H]1CCCN1C(=O)CCCc1ccccc1
IC50 (Prolyl endopeptidase): 10.3 nM

SMILES: CCNC(=O)[C@H]1C[C@@H](n2cnc3c(N)nc(C#Cc4nccs4)nc32)[C@H](OC)[C@@H]1OC
Ki (Adenosine receptor A2a): 41.3 nM

SMILES: CC[C@@]1(O)C(=O)OCc2c1cc1n(c2=O)Cc2c-1nc1cnc(C#N)cc1c2C
IC50 [2]: 143 nM

SMILES: CCCc1c(OCCCOc2ccc3c(c2CCC)O[C@@H](C(=O)O)CC3)ccc(C(C)=O)c1CO
Ki [1]: 320 nM

Further lines, results first:

Ki [1]: 3.2 nM
SMILES: CCCc1c(OCCCOc2ccc(-c3cscn3)c(COC)c2CC2CC2)ccc2c1O[C@@H](C(=O)O)CC2

Ki (Endothelin-1 receptor): 170 nM
SMILES: COc1ccc(CC2C(c3ccc(Cl)c(Cl)c3)C(=O)O[C@@]2(O)c2ccc(OC)cc2)cc1 (stereo partly drawn)

Ki [3]: 1.2 nM
SMILES: CCCCc1nn(-c2ccccc2C(F)(F)F)c(=O)n1Cc1ccc(-c2ccccc2-c2nnn[nH]2)cc1

IC50 [4]: 0.45 nM | Ki [5]: 17 nM
SMILES: CCCCc1nn(-c2ccccc2C(F)(F)F)c(=O)n1Cc1ccc(-c2ccccc2S(=O)(=O)NC(=O)OC(C)(C)C)cc1

IC50 [4]: 31 nM | Ki [5]: 173 nM
SMILES: CCCCc1nn(-c2cccc([N+](=O)[O-])c2)c(=O)n1Cc1ccc(-c2ccccc2S(=O)(=O)NC(=O)c2ccccc2Cl)cc1

Ki [3]: 1.4 nM
SMILES: CCCCc1nn(-c2ccccc2C(C)C)c(=O)n1Cc1ccc(-c2ccccc2-c2nn[nH]n2)cc1
